From ChEMBL document CHEMBL1153744, “Diketopiperazines from the Cordyceps-colonizing fungus Epicoccum nigrum” (J Nat Prod, 2009) come the findings set out here.

Data set [1] is described as follows: Cytotoxicity against human […] cells after 4 days by MTT assay. It is filed as cell-based. A general note: Tetrazolium dyes change colour on reduction, which living cells bring about.
In data set [2] the test system is Human immunodeficiency virus 1. The experiment in a line: Inhibition of HIV1 viral replication infected in human C8166 cells assessed as suppression of virion-associated p24 antigen production after 4 days by ELISA. It is filed as functional, organism-based. The settings on record: Human immunodeficiency virus 1, C8166, 96 h.

For the molecule `CN1C(=O)[C@H](Cc2ccccc2)NC(=O)/C1=C/c1ccccc1` [DIPHENYLALAZINE A], the CC50 at 96 h in data set [1] was > 100 µM. Further, in data set [2], the EC50 came to 27.9 µM.
Regarding `CS[C@@]12C[C@H]3C(=O)CC[C@H](O)[C@H]3N1C(=O)[C@]1(SC)C[C@H]3C(=O)CC[C@H](O)[C@H]3N1C2=O` [EPICOCCIN G], the CC50 at 96 h in data set [1] was > 100 µM. Besides, the EC50 in data set [2] is 13.5 µM.
With `CS[C@@]12C[C@H]3C(=O)C[C@H](O)[C@H](O)[C@H]3N1C(=O)[C@]1(SC)C[C@H]3C(=O)C[C@H](O)[C@H](O)[C@H]3N1C2=O` [EPICOCCIN H], the CC50 at 96 h in data set [1] is > 100 µM. Further, the EC50 in data set [2] came out at 42.2 µM.

The CC50 is the concentration giving 50% cytotoxicity. Usually EC50 stands for the midpoint of the concentration-response curve.
